According to patent publication US11149028B2, “Methods for treating melanoma using small molecules” (NOVA SOUTHEASTERN UNIVERSITY, priority 2016, dated 2021):
Entries after “also recorded” stand apart in the source; their conditions may differ. Peptide text beside a SMILES is read from it. * marks the point of attachment. Cbz = O=C(OCc1ccccc1)*; CH2F = FC*

Columns and labels:
WM266-4 cells [1] = experiment: CellTiter-Glo cell viability assay, WM266-4 (including rescue assays); assay type: cell-based, human
Experimental: Cells were plated in 384-well plates in 8 μL of media. Test compounds and dabrafenib (pharmacological assay control) were prepared as 10-point, 1:3 serial dilutions starting at 300 μM, then added to the cells (4 μL per well) using the Biomek Plates were incubated for 72 h at 37° C., 5% CO2 and 95% relative humidity. After incubation, 4 μL of CellTiter-Glo® (Promega cat #: G7570) were added to each well, and incubated for 15 min at room temperature. Luminescence was recorded using a Biotek Synergy H4 multimode microplate reader. Viability was expressed as a percentage relative to wells containing media only (0%) and wells containing cells treated with DMSO only (100%). Three parameters were calculated on a per-plate basis: (a) the signal-to-background ratio (SB); (b) the coefficient for variation [CV; CV=(standard deviation/mean)×100)] for all compound test wells; and (c) the Z′-factor (18). The IC50 value of the pharmacological control (dabrafenib, LC Laboratories #G-4408) was also calculated to ascertain the assay robustness. In case of viability rescue assays, cells were pre-treated with caspase, calpain, and autophagy inhibitors for 1-3 h before addition of test compounds. Time course viability assay was done with luminescence measurements performed at 4, 24, 48, and 72 h.

calpain in WM266-4 cells = experiment: Calpain activity assay (Calpain-Glo); assay type: cell-based, human
Experimental: The Calpain-Glo Protease Assay (Promega cat #) was used to measure the calpain enzyme activity in live cells, according to the manufacturer's instructions. 1,250 of WM-266-4 cells were plated in 384-well white TC-treated plates in 5 μL of serum-free EMEM media. The cells were incubated overnight at 37° C., 5% CO2 and 95% relative humidity and 5 μL of test compounds 2155-14, (100 μM), calpain inhibitor III and PD151746 (25 μM) were added alone or in combination and incubated at 37° C., 5% CO2, and 95% relative humidity for 0.5, 4, and 24 h. After incubation, 10 μL, of a freshly prepared dilution of the Calpain-Glo Reagent stock solution (consisting of Suc-LLVY-Glo™ substrate, Calpain-Glo™ buffer, Luciferin Detection Reagent, and CaCl2) was added to cells at above mentioned times and luminescence was recorded with a Neo 2 microplate reader (Biotek Inc). All experiments were performed in triplicate and the values provided are the calculated average of at least three independent experiments.

[2] = tested on: LC3-II and beclin-1 in WM266-4 cells; experiment: Western blotting for LC3 and beclin-1, WM266-4; assay type: cell-based, human
Experimental: (§1) 1×10^6 of WM266-4 or M14 cells were seeded in 3 mL of E-MEM or RPMI-1640 medium supplemented with 10% FBS and 1% penicillin/streptomycin in 6 cm plates. […] After washing with TBST, the membranes were treated with chemilumiscent horseradish peroxidase detection reagent (Thermo Scientific, Cat #32209) and exposed to autoradiography film (Denville Scientific, Inc., Metuchen, N.J., USA, cat #E3018). ImageJ software (NIH, Bethesda, Md.) was used to quantify the intensity of proteins bands. The protein bands were normalized against loading controls (β-actin) and expressed as a fold of an untreated control.

[3] = tested on: cleaved lamin A/C in WM266-4 cells; experiment: Western blotting for lamin A/C cleavage; assay type: cell-based, human
Experimental: as §1, with “controls.” for “controls (β-actin) and expressed as a fold of an untreated control.”

M14 cells = details: time course 4-72 h; time stated at the place
Experimental: ApoTox-Glo™ Triplex Assay which allows one to simultaneously assess the effect of small molecules on cell viability, toxicity, caspase activity, and cell cycle all in the same well (Niles, A. L.; Moravec, R. A.; Riss, T. L. In vitro viability and cytotoxicity testing and same-well multi-parametric combinations for high throughput screening. Curr Chem Genomics 2009, 3, 33-41) was utilized. First, a mixture of 2 fluorogenic substrates was added to cells. GF-AFC substrate is cell-permeant and non-lytic to cells, allowing the measurement of active protease inside live cells. The second substrate (bis-AAF-R110 Substrate) is not cell-permeable and is only cleaved when proteases are released from cells due to the loss of membrane integrity typical of cell death. This step generates an inversely correlated measurement of cell viability and toxicity.
The second addition is luminogenic DEVD-peptide substrate for caspase-3/7 and Ultra-Glo™ Recombinant Thermostable Luciferase. Caspase-3/7 cleavage of the substrate generates a luminescent signal which correlates with caspase-3/7 activation as a key indicator of apoptosis. As markers for cytotoxicity and apoptosis are transient, the assay was conducted in time course format with time points at 4, 24, 48, and 72 h.
M14 #5 cells were plated in 384-well format at a density of 1,250 cells in 5 μL of serum-free DMEM media and incubated at 37° C. in 5% CO2 for 4 h. Control and test compounds were serially diluted in a ratio of 1:3 and added to wells in 4 μL. […] Plates were incubated at 37° C. in 5% CO2 for 4, 24, 48, and 72 h. At the end of each time point Viability/Cytotoxicity™ Reagent was prepared containing 400 μM glycylphenylalanyl-aminofluorocoumarin (GF-AFC) substrate (cleavable by live cell proteases) and 400 μM bis-alanylalanyl-phenylalanyl-rhodamine 110 (bis-AAF-R110) substrate (cleavable by dead cell proteases). 4 μL of the Viability/Cytotoxicity™ Reagent was used per well. The plate was incubated for 30 min at 37° C. Fluorescence was read at λEx=400 nm and λEm=505 nm for GF-AFC and λEx=485 nm and λEm=520 nm for bis-AAF-R110 on the BioTek Synergy™ 4 Multi-Mode Microplate Reader. Caspase-Glo® 3/7 Reagent was then added in 12 μL volume. The plate was incubated for 30 min at room temperature and luminescence was measured on the BioTek Synergy™ 4 Multi-Mode Microplate Reader.

WM266-4 cells [4] = experiment: Annexin V flow cytometry assay; assay type: cell-based, human; details: 4 h
Excerpt: After 4, 24 and 48 hrs of compound exposure the adherent and floating cells were combined and stained using the TACS Annexin V-FITC Apoptosis detection kit (Trevigen Inc, Gaithersburg, Md., USA) using manufacturer's protocol. Viable, necrotic, early and late apoptotic cells were counted using Accuri flow cytometer as per the manufacturer instructions.

[5] = 50 μM inhibitor, then 100 μM 2155-14
[6] = 10 μM inhibitor 3 h, then 100 μM 2155-14, 24 h
[7] = cells treated with 100 μM 2155-14, inhibitor 10 μM

CCCNC(=O)[C@H]1O[C@@H]1C(=O)N[C@H](C(=O)N1CCC[C@H]1C(=O)O)[C@@H](C)CC [CA074, reference compound]
viability of WM266-4 cells (WM266-4 cells [1]; 24 h, 20 μM cathepsin B inhibitor): 25%
increase of calpain activity (calpain in WM266-4 cells; 20 μM, from 30 min, persisted at 4 and 24 h): ~5 fold

CN(C)c1cccc2c(S(=O)(=O)NCCCC[C@@H](CN3CCC[C@H]3CN3C(=O)C(=O)NC[C@@H]3Cc3ccccc3)N3C[C@H](Cc4ccc(O)cc4)N(CCc4ccccc4)C(=O)C3=O)cccc12 [Compound 2476-66.2, N—((S)-6-((S)-2-(((S)-6-benzyl-2,3-dioxopiperazin-1-yl)methyl)pyrrolidin-1-yl)-5-((S)-5-(4-hydroxybenzyl)-2,3-dioxo-4-phenethylpiperazin-1-yl)hexyl)-5-(dimethylamino)naphthalene-1-sulfonamide]
LC3-II level ([2]; 2.5 μM, 24 hr): no cleavage of lamin A/C or increase of levels of LC3-II was detected
LC3 western blot ([2]; 5 μM, 24 hr): neither of LC3 isoforms nor actin were detected
lamin A/C cleavage ([3]; 2.5 μM, 24 hr): no cleavage of lamin A/C
lamin A/C western blot ([3]; 5 μM, 24 hr): striking increase of cleaved lamin A/C

O=C(CCCC[C@@H]1SC[C@@H]2NC(=O)N[C@@H]21)NCCCC[C@@H](CN1CCC[C@H]1CN1C(=O)C(=O)NC[C@@H]1Cc1ccccc1)N1C[C@H](Cc2ccc(O)cc2)N(CCc2ccccc2)C(=O)C1=O [Compound 2529-5, N—((S)-6-((S)-2-(((S)-6-benzyl-2,3-dioxopiperazin-1-yl)methyl)pyrrolidin-1-yl)-5-((S)-5-(4-hydroxybenzyl)-2,3-dioxo-4-phenethylpiperazin-1-yl)hexyl)-5-((3aS,4S,6aR)-2-oxohexahydro-1H-thieno[3,4-d]imidazol-4-yl)pentanamide]
IC50 (WM266-4 cells [1]; Homo sapiens, WM 266-4, 72 h, 72 h): > 100 µM
cytotoxicity at 100 µM (WM266-4 cells [1]; Homo sapiens, WM 266-4, 100 μM, 72 h, read-out: maximal inhibition of cell viability): 37%
LC3-II level ([2]; 100 μM, 24 h): did not significantly increase
cleaved lamin A/C level ([3]; 100 μM, 24 h): did not significantly increase; also recorded: had no effect on cleavage of lamin A/C

O=C(O)/C(S)=C/c1c[nH]c2ccc(F)cc12 [PD151746, reference compound]
cell viability restored in presence of 2155-14 (WM266-4 cells [1]; 24 h, 25 μM inhibitor, 100 μM 2155-14): ~75%
cell viability restored in presence of 2155-14 (WM266-4 cells [1]; 48 h, 25 μM inhibitor, 100 μM 2155-14): ~50%
cell viability in presence of 2155-14 (WM266-4 cells [1]; 72 h, 25 μM inhibitor, 100 μM 2155-14): all cells were dead
calpain activity induced by 2155-14 after calpain inhibitor pre-treatment (calpain in WM266-4 cells; 25 μM inhibitor, 100 μM 2155-14): shut down calpain activity induced by 2155-14 at 30 min and 4 h but not at 24 h

COC(=O)C[C@H](NC(=O)[C@H](C)NC(=O)[C@@H](NC(=O)[C@H](CC(=O)OC)NC(=O)[C@@H](NC(=O)OCc1ccccc1)C(C)C)C(C)C)C(=O)CF [caspase 2 inhibitor, Z-VDVAD-FMK, reference compound] (Cbz-VD(OMe)VAD(OMe)-CH2F)
lamin A/C cleavage after caspase inhibitor pre-treatment [3, 5]: to the lesser extent

CC[C@H](C)[C@H](NC(=O)[C@H](CCC(=O)OC)NC(=O)[C@@H](NC(=O)OCc1ccccc1)C(C)C)C(=O)N[C@@H](CC(=O)OC)C(=O)CF [caspase 6 inhibitor, Z-VEID-FMK, reference compound] (Cbz-VE(OMe)ID(OMe)-CH2F)
lamin A/C cleavage after caspase inhibitor pre-treatment [3, 6]: Only partial inhibition of lamin A/C cleavage
lamin A/C cleavage after caspase inhibitor pre-treatment [3, 5]: almost completely abrogated

CC[C@H](C)[C@H](NC(=O)OCc1ccccc1)C(=O)N[C@@H](CCC(=O)OC)C(=O)N[C@H](C(=O)N[C@@H](CC(=O)OC)C(=O)CF)[C@@H](C)O [caspase 8 inhibitor, Z-IETD-FMK, reference compound] (Cbz-IE(OMe)TD(OMe)-CH2F)
lamin A/C cleavage after caspase inhibitor pre-treatment [3, 6]: Only partial inhibition of lamin A/C cleavage
lamin A/C cleavage after caspase inhibitor pre-treatment [3, 5]: almost completely abrogated

CCN(CCO)CCCC(C)Nc1ccnc2cc(Cl)ccc12 (centres unmarked) [hydroxychloroquine, reference compound]
LC3-II level after autophagy inhibitor pretreatment [2, 7]: increased levels
cleaved lamin A/C level after autophagy inhibitor pretreatment [3, 7]: increased levels

C[C@H](CCC(=O)O)C[C@H](C)C[C@H](C)C(=O)/C=C(\O)[C@H](C)C[C@H](C)C/C=C/[C@@H](C)[C@@H](O)[C@@H](C)[C@@H](O)C[C@@H]1CC[C@@](C)([C@H]2CC[C@@](C)([C@@H](C)O)O2)O1 [ionomycin, reference compound]
ApoTox caspase-3/7 activity (M14 cells): did not induce a spike in caspase activity at any of the time points
ApoTox cytotoxicity (M14 cells): strong cytotoxicity response
ApoTox viability (live cell protease) (M14 cells): dose dependent loss of viability as early as 4 h

COC(=O)C[C@H](NC(=O)[C@H](C)NC(=O)[C@@H](NC(=O)OCc1ccccc1)C(C)C)C(=O)CF [pan-caspase inhibitor, Z-VAD-FMK, reference compound] (Cbz-Val-Ala-Asp(OMe)-CH2F)
lamin A/C cleavage after caspase inhibitor pre-treatment [3, 6]: Only partial inhibition of lamin A/C cleavage
lamin A/C cleavage after caspase inhibitor pre-treatment [3, 5]: almost completely abrogated

CN[C@@H]1C[C@H]2O[C@@](C)([C@@H]1OC)n1c3ccccc3c3c4c(c5c6ccccc6n2c5c31)C(=O)NC4 [staurosporine, reference compound]
apoptosis detected (WM266-4 cells [4]): apoptosis was detected only in staurosporine-treated cells

CC(C)(C)c1ccc(C(O)CCCN2CCC(C(O)(c3ccccc3)c3ccccc3)CC2)cc1 (centres unmarked) [terfenadine, reference compound]
ApoTox caspase-3/7 activity (M14 cells): early caspase activity spike (4-24 h)
ApoTox viability (live cell protease) (M14 cells): early loss of cell viability
